Source: publication PMC12207590, “Substrate Specificity of the Organic Cation Transporters MATE1 and MATE2K and Functional Overlap with OCT1 and OCT2” (Journal of Medicinal Chemistry, 2025)
Where two headings read alike, the source gives them in different places.

What was measured:
[1] = molecular target: MATE2K (Homo sapiens, UniProt Q86VL8); experiment: Uptake ratio in MATE2K-overexpressing HEK293 cells vs empty vector (2.5 μM, 1 min, HPLC-MS/MS); format: cell-based; details: for MATE2K ratio in this study: Table S1
MATE2K, sequence (Q86VL8 1-566 isoform Q86VL8-3): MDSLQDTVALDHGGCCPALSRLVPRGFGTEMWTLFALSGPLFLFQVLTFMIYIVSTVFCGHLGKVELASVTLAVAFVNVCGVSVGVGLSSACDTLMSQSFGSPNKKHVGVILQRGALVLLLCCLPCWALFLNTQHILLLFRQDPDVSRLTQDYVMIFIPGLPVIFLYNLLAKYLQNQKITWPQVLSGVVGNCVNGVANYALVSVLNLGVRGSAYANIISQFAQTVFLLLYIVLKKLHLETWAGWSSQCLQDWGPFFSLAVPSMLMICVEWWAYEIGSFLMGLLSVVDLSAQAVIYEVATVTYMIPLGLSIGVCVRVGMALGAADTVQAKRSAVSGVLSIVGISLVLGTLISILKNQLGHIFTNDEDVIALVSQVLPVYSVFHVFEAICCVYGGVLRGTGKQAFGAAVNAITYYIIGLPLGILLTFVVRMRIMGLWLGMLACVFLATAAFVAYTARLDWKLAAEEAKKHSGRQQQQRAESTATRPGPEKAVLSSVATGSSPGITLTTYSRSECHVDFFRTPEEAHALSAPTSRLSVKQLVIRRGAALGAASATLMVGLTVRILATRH

[2] = molecular target: T1, MATE1 (Homo sapiens, UniProt Q96FL8); experiment: Uptake ratio in MATE1-overexpressing HEK293 cells vs empty vector (2.5 μM, 1 min, HPLC-MS/MS); format: cell-based; details: for MATE1 ratio in this study: Table S1
T1 sequence (Q96FL8 1-570): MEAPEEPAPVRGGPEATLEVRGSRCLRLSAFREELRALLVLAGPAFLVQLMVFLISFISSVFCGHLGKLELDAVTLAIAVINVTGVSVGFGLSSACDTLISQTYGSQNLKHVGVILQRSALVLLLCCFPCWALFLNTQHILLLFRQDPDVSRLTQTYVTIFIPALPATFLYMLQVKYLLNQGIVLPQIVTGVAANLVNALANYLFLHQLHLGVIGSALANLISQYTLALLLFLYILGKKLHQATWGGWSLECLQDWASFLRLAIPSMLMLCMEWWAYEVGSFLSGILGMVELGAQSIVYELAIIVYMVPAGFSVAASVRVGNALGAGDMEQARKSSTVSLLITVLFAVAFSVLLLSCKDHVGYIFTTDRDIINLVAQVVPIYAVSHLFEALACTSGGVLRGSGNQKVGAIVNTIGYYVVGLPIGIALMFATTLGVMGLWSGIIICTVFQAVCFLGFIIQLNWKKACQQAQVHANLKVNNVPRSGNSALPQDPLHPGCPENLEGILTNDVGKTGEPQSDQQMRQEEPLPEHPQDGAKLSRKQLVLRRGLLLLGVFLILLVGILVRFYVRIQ

[3] = fold uptake over empty vector, 2.5 μM, 1 min
[4] = mean ratio of uptake in MATE2K-overexpressing HEK293 cells vs empty vector, 2.5 μM, 1 min
[5] = mean ratio of uptake in MATE1-overexpressing HEK293 cells vs empty vector, 2.5 μM, 1 min
[6] = uptake ratio MATE2K-overexpressing vs empty-vector HEK293 cells, 2.5 μM, 1 min, mean
[7] = uptake ratio MATE1-overexpressing vs empty-vector HEK293 cells, 2.5 μM, 1 min, mean

Row | MATE2K ratio [1, 3] | MATE1 ratio [2, 3] | SMILES | other results
1 | 8.76 | 11.01 | CCN(CC)C(=O)Nc1ccc(OCC(O)CNC(C)(C)C)c(C(C)=O)c1 (stereo not drawn) [Celiprolol] | MATE2 (uptake ratio) [1, 4]: 8.76; MATE1 (uptake ratio) [2, 5]: 11.01
2 | 1.05 | 1.45 | NCC(CC(=O)O)c1ccc(Cl)cc1 (stereo not drawn) [Baclofen] | MATE2 (uptake ratio) [1, 4]: 1.05; MATE1 (uptake ratio) [2, 5]: 1.45
3 | 0.97 | 0.97 | Cc1oc2nc3c(c(NC(=O)CN4CCCC4=O)c2c1C)CCCC3 [Coluracetam] | 
4 | 0.76 | 0.98 | O=c1[nH]c2ccccc2n1C1CCN(CCCC(c2ccc(F)cc2)c2ccc(F)cc2)CC1 [Pimozide] | 
5 | 1.19 | 1.09 | CCCS(=O)(=O)N[C@H]1C[C@@H](N(C)c2ncnc3[nH]ccc23)C1 [Abrocitinib] | MATE2 (uptake ratio) [1, 4]: 1.19; MATE1 (uptake ratio) [2, 5]: 1.09
6 | 2.28 | 3.53 | NC(N)=NCc1cccc(I)c1 [m-Iodobenzylguanidin] | 
7 | 1.01 | 0.89 | O=C(Nc1nc2cccc(-c3ccc(CN4CCS(=O)(=O)CC4)cc3)n2n1)C1CC1 [Filgotinib] | 
8 | 0.95 | 1.02 | CC(=O)N[C@@H](CS)C(=O)O [N-Acetyl-L-cysteine] | 
9 | 4.17 | 8.11 | Oc1ccc(C2CNCCc3c2cc(O)c(O)c3Cl)cc1 (stereo not drawn) [Fenoldopam] | 
10 | 1.13 | 1.26 | OCCN1CCN(CCCN2c3ccccc3Sc3ccc(C(F)(F)F)cc32)CC1 [Fluphenazine] | 
11 | 1.53 | 1.78 | Nc1cccc2c1CN(C1CCC(=O)NC1=O)C2=O (stereo not drawn) [Lenalidomide] | 
12 | 4.18 | 5.78 | CCOC(=O)c1ccc(OC(=O)CCCCCNC(=N)N)cc1 [Gabexate] | 
13 | 2.03 | 3.71 | CNCc1ccc(-c2[nH]c3cc(F)cc4c3c2CCNC4=O)cc1 [Rucaparib] | MATE2 [1, 6]: 2.03; MATE1 [2, 7]: 3.71

Continued, compound first:

Row | SMILES | MATE2K ratio [1, 3] | MATE1 ratio [2, 3] | other results
14 | CNC1(C)C2CCC(C2)C1(C)C (stereo not drawn) [Mecamylamine] | 1.05 | 1.20 | 
15 | N=C(N)NCCC[C@H](NC(=O)c1ccc2ccccc2c1O)C(=O)N1CCC[C@H]1C(N)=O [APC366] |  |  | MATE2 (uptake ratio) [1]: 1.41; MATE2K ratio [1]: 1.41; MATE1 (uptake ratio) [2]: 19.12; MATE1 ratio [2]: 19.12
16 | C[C@]12CC[C@@H]3c4ccc(OS(=O)(=O)O)cc4CC[C@H]3[C@@H]1CCC2=O [Estrone-3-sulfate] | 2.08 | 4.80 | MATE2K ratio in this study ([1]; 2.5 μM, 1 min): 2.08; MATE1 ratio in this study ([2]; 2.5 μM, 1 min): 4.80; substrate of MATE1 ([2]; organic anions tested): substrates of MATE1
17 | CN(C)c1ccc(C(=C2C=CC(=[N+](C)C)C=C2)c2ccc(N(C)C)cc2)cc1 [Gentian violet] | 1.05 | 1.40 | 
18 | O=C(O[C@H]1C[N+]2(CCCOc3ccccc3)CCC1CC2)C(O)(c1cccs1)c1cccs1 [Aclidinium (S), Aclidinium] | 1.64 | 5.36 | MATE2 (uptake ratio) [1, 4]: 1.64; MATE1 (uptake ratio) [2, 5]: 5.36
19 | C=CCN1CCCC1CNC(=O)c1cc(S(N)(=O)=O)cc(OC)c1OC (stereo not drawn) [Veralipride] |  |  | MATE2 [1, 6]: 4.21; MATE1 [2, 7]: 6.39
20 | NCCCC[C@H](N)C(=O)O [Lysine] |  |  | MATE2K ratio [1]: 1.05; MATE1 ratio [2]: 1.13
21 | C[C@@H]1Cc2c(Cl)cc(C(=O)N[C@@H](Cc3ccccc3)C(=O)O)c(O)c2C(=O)O1 [Ochratoxin A] |  |  | MATE2K ratio [1]: 1.28; MATE1 ratio [2]: 3.12; substrate of MATE1 [2]: substrates of MATE1
22 | C[C@@H]1O[C@@]2(CS1)CN1CCC2CC1 [Cevimeline] | 1.35 | 1.59 | MATE2 (uptake ratio) [1, 4]: 1.35; MATE1 (uptake ratio) [2, 5]: 1.59
23 | CNC[C@H](O)c1cccc(O)c1 [Phenylephrine (S), Phenylephrine] | 1.44 | 12.74 | 
24 | C[C@@H]1CCN(C(=O)CC#N)C[C@@H]1N(C)c1ncnc2[nH]ccc12 [Tofacitinib] |  |  | MATE2K ratio in this study ([1]; 2.5 μM, 1 min): 1.41; MATE2 [1, 6]: 1.41; MATE1 ratio in this study ([2]; 2.5 μM, 1 min): 1.36; MATE1 [2, 7]: 1.36
25 | O=C(NCCNCC(O)COc1ccc(O)cc1)N1CCOCC1 (stereo not drawn) [Xamoterol] |  |  | MATE2 [1, 6]: 6.13; MATE1 [2, 7]: 7.62
26 | CC(=O)c1cc2cccc(OCC(O)CNC(C)C)c2o1 (stereo not drawn) [Befunolol] | 1.38 | 1.39 | MATE2 (uptake ratio) [1, 4]: 1.38; MATE1 (uptake ratio) [2, 5]: 1.39
27 | CC(CCc1ccc(O)cc1)NCC(O)c1ccc(O)cc1 (stereo not drawn) [Ractopamine] |  |  | MATE2 [1]: 1.4; MATE2K ratio [1]: 1.40; MATE1 [2]: 4.56; MATE1 ratio [2]: 4.56
